Molecules are shown by their SMILES. Residues, ends and D or L forms follow the SMILES beside them. *: point of attachment. Cbz = O=C(OCc1ccccc1)*

For 61 compounds, melting point results are on record in a melting point compilation (Tetko et al.; mined from patent text by program, amines drawn as free bases though some values may be those of a salt).

On to `Cc1cc(-c2cc(C(F)(F)F)n3ncc(C(=O)Nc4cccc(S(N)(=O)=O)c4)c3n2)ccc1C(F)(F)F`, for which the melting point is 245 °C. `O=C(O)C1=Cc2cc(-c3ccc(Br)cc3)ccc2OC1C(F)(F)F` (stereo unspecified) came in with a melting point of 215 to 216 °C. With `COC(=O)CCCc1cc2cc(Cl)ccc2n1S(=O)(=O)c1cccc2cccnc12` the figure was 120 to 124 °C; with `CCNC(=O)c1c(Cl)cccc1OC(C)(C)C`, 126 to 127 °C. For the compound `COc1ccc(Oc2cc3ccc(Cl)cc3cn2)cc1`, the melting point was found to be 77 °C.

Regarding `COc1ccc2c(Cc3ncc(Cl)cc3Cl)nncc2c1C=Cc1ccccc1`, the melting point was 180 to 182 °C.

For `CN1C(=O)C(c2c[nH]c3ncccc23)=C(c2cn(C(=O)OC(C)(C)C)c3ccccc23)C1=O`, the melting point was 180 °C. Next, `O=C(O)COCc1ccccc1`: 81 to 83 °C. With `COc1ccccc1-c1cc(F)cc(OCc2ccc3c(-c4ccoc4)cc(C#N)nc3c2)c1` the figure was 132 to 134 °C; with `CCN(CC)c1ccc2nc3c4ccccc4c(=Nc4cc(C)nc5ccccc45)cc-3oc2c1`, 229 to 230 °C; with `C[C@H]1CCCC(C)(C)[C@@H]1C(=O)c1cc(F)c(F)c(F)c1`, 56.7 °C. With `Cc1nc(CC2OC(CO)C(O)C2O)n2nc(N(C)C)ccc12` (stereo unspecified) the figure was 231 to 232 °C; with `CC(c1ccccc1)N1c2ccccc2Oc2ccccc21` (stereo unspecified), 100 °C. `COc1cccc(-c2cc3cnc(N)nc3nc2NC(=O)NC(C)(C)C)c1`: the melting point was in the range of 275 to 280 °C.

Regarding `Cc1cc2cc(CN3CCCC3)cnc2cc1NC(=O)c1ccc(-c2ccc(F)cc2)cc1F`, the melting point lay in the range of 174 to 177 °C. With `CCSc1cnc(Cl)cc1C#N` the figure was 112 to 114 °C; with `ClCc1c(Cl)nnc(Cl)c1Cl`, 102 to 104 °C; with `Cc1noc(NS(=O)(=O)c2cccc(Cl)c2)c1Br`, 132 to 134 °C. Next, `Nc1cc(O)ccc1Oc1ccccc1`: 156 to 157 °C.

Turning to `C#CCc1c(C)nc2c(NCc3ccccc3C)cccn12`, the melting point lay within 126 to 128 °C.

`CC(C)(C)c1cc(C(O)C#Cc2ccc(C(=O)O)cc2)cc(C(C)(C)C)c1OCOCC[Si](C)(C)C` (stereo unspecified) had a melting point of 155 to 156 °C. Turning to `CSc1cc(=O)c2occc2s1`, the melting point lay in the range of 149 to 150 °C. `O=C1Cc2c(cccc2N(CCN(Cc2ccccc2)C(=O)C(F)(F)F)C(=O)C(F)(F)F)N1`: the melting point fell in the range of 108 to 111 °C. With `N#Cc1c(N2CCN(C(=O)c3ccc4ccccc4n3)CC2)c2ccccc2n(Cc2ccc(F)cc2)c1=O` the figure was 144 to 157 °C; with `CC(C)(C)c1ccc(P2Oc3ccccc3-c3ccccc32)cc1` (stereo unspecified), 90 to 92 °C; with `O=C(O)c1cn(CC2CCCCC2)c2cc(Cl)ccc12`, 170 to 172 °C. With `CN(C)C(=O)C1(NS(=O)(=O)c2ccc3c(Cl)cnc(NC(=N)N)c3c2)CCCC1` the figure was 264 to 268 °C; with `CCN(CC)C(=O)CC1CCN(Cc2cnc3c(C)c(NC(=O)c4ccc(-c5ccc(F)cc5)cc4)ccc3c2)CC1`, 158 to 160 °C; with `CS(=O)(=O)Nc1ccc(C#N)cc1Nc1ccc(F)cc1F`, 167 to 169 °C. Next, `CC(=O)NCCc1cccc2ccc(OCCCO)cc12`: 141 to 142 °C; `NS(=O)(=O)c1cccc(S(=O)(=O)NC2CC2)c1`: 170 to 174 °C. `CN(c1ccncc1)c1ccccc1C(=O)N1CCCCC1` gave a melting point of 110 to 111 °C. `COc1ccc(NCCCN)c2c1C(=O)c1ccccc1C2=O`: the melting point was 108 to 110 °C. Next, `CCOC(=O)C=Cc1ccc(C(=O)Nc2ccc3c(c2)C(C)(C)CCC3(C)C)cc1`: 166 °C; `CC(=O)C1CCC2C3CCC4CC(=O)C(C)CC4(C)C3C(=O)CC12C` (stereo unspecified): 176 °C. With `C[C@@H]1Cc2ccsc2[C@H](C)N1CCNC(=O)c1c(F)c(F)c(F)c(F)c1F` (relative stereo) the figure was 116 to 119 °C; with `CCN(CC)S(=O)(=O)c1cc2oc(-c3ccccc3)nc2c2ccccc12`, 157 °C. With `CC(=O)c1cc(-c2c(Cl)ccc(C(=O)O)c2Cl)n(C)n1`, the melting point fell in the range of 200 to 203 °C. Next, `CC(C)CN1C(=O)C(C)(C)C(=O)Nc2cc(C#N)ccc21`: 204 to 205 °C.

`O=C(O)c1cn2c3c(c(N4CCCC4)c(F)cc3c1=O)CCN2Cc1ccccc1` displayed a melting point of 174 to 180 °C. With `COC(=O)C[C@]1(C(=O)OC)CC(c2ccc(OC)c(OC3CCCC3)c2)=NO1` the figure was 92 to 93 °C; with `Cc1ccc(S(=O)(=O)N2CCc3ccccc3C(Oc3cccc(C(F)(F)F)c3)C2)cc1` (stereo unspecified), 112 to 114 °C; with `CCN1N=C(c2ccc(F)cc2)c2cc(Cl)c(Cl)cc2CS1(=O)=O`, 218 to 221 °C.

`CC(C)(C)c1ccc(-c2cc(=O)cc(N3CCOCC3)o2)cc1` returned a melting point of 156 °C. With `COc1cc2c(c3c1OC(C)(C)C3)C(c1cccc(-c3ccc4ccccc4n3)c1)=NC(C)(C)C2` the figure was 167 to 169 °C. Compound `O=C1OC(=O)c2cc(Oc3ccc(C(F)(F)F)cc3Cl)ccc21` yielded a melting point of 88 to 91 °C. Next, `CC(C)(c1ccccc1)c1cccc(S(=O)(=O)NC(CCCNC(=N)N)C(=O)O)c1` (stereo unspecified): 122 to 124 °C; `CCOC(=O)c1ccc(NCCCCCCCCCCC[Si](C)(C)C)cc1`: 66 to 68 °C. With `O=C1N(Cc2ccc(C(F)(F)F)o2)c2cc3c(cc2C12COc1cc4c(cc12)CCO4)OCCO3` (stereo unspecified) the figure was 189 to 191 °C. Next, `N#CCc1ccc(CNC(=O)C2Cc3ccccc3N2S(=O)(=O)c2ccc(-c3cccc(C(F)(F)F)c3)cc2)cc1` (stereo unspecified): 75 to 80 °C; `CCSC1(S)CCC2C3CCC4=CC(=O)C=CC4(C)C3(F)C(O)CC21C` (stereo unspecified): 239 to 242 °C. Consider `CN(C)C(=O)c1cc2c(OC[C@@H](O)CN3CCC(c4ccc5ccccc5c4)CC3)cccc2n1C`, for which the melting point fell in the range of 146 to 148 °C. With `CCNC(=O)C(C)NC(=O)C(C)NC(=O)C1CCCN1C(=O)OCc1ccccc1` (stereo not drawn) (Cbz-Pro-Ala-Ala-NHEt; configuration not given here) the figure was 219 to 220 °C; with `CC(Oc1ncn(-c2ccc(Cl)cc2Cl)n1)C(=O)O` (stereo unspecified), 151 to 153 °C; with `CON(C)C(=O)Nc1c(C(=O)c2cc(C)ccn2)[nH]c2cc(Cl)ccc12`, 199 to 200 °C. Next, `CONC(=O)c1cnn(-c2ccccc2)c1Br`: 194 to 197 °C; `COc1ccc2c(c1)CC(N(C)CCCN1CCc3cc(OC)c(OC)cc3NC1=O)CC2` (stereo unspecified): 163 to 165 °C.

`O=C1CCC2=C(CCc3cccc(F)c32)N1`: the melting point was determined as 199 °C. With `C=C(C)C(=O)OCc1c(Br)c(Br)c(Br)c(Br)c1COC(=O)C(=C)C` the figure was 64 to 66 °C; with `O=C(O)C(=O)N1CCC(Oc2ccc(F)cc2)CC1`, 147 to 149 °C; with `O=C(CN1CCN(c2cnccn2)CC1)N1CC=C(c2ccc(Cl)cc2)CC1`, 139 to 141 °C.
